According to publication PMC9603901, “Therapeutic Potential of Antimicrobial Peptide PN5 against Multidrug-Resistant E. coli and Anti-Inflammatory Activity in a Septic Mouse Model” (Microbiology Spectrum, 2022):
Values after ≈ are worked out from the molar mass of the structure shown. Like-named read-outs stand apart in the source and are kept apart here.

How the values were obtained:
MDR E. coli ASEC 17 [1] = experiment: microbe, parasite or virus in culture; type: cell-based, Escherichia coli; details: Escherichia coli, microdilution, LB, 18 to 24 h, 37°C, three independent experiments, read-out: MIC
Protocol: (§1) Bacterial cells were cultured at 37°C in the appropriate culture media with shaking (180 rpm). Luria-Bertani broth (LB) (244620; BD Difco) was used for E. coli ATCC 25922, ASEC strains, and B. subtilis KCTC 2217. Nutrient broth (NB) (234000; BD Difco) was used for P. aeruginosa ATCC 27853, S. Typhimurium KCTC 1926, and A. baumannii KCTC 2508. Tryptic soy broth (TSB) (211825; BD Difco) was used for S. aureus ATCC 25923. Finally, brain heart infusion (BHI) (237500; BD Difco) was used for L. monocytogenes KCTC 3710. The antimicrobial activity of each peptide was determined using microdilution assays. To this end, 2-fold serial dilution series of each peptide (from 1 to 64 μM) were added to duplicate media with 10 mM sodium phosphate buffer (pH 7.4). Fifty microliters of the peptide and antibiotic solution was added to each well of a 96-well plate (32096, surface nontreatment; SPL Life Sciences). Then, 50 μL of 2 × 10^5 CFU mL^−1 of bacteria was added to each well, and the samples were incubated for 18 to 24 h without shaking at 37°C.

MDR E. coli ASEC 16 = experiment: microbe, parasite or virus in culture; type: cell-based, Escherichia coli; details: Escherichia coli, microdilution, LB, 18 to 24 h, 37°C, three independent experiments, read-out: MIC
Protocol: as §1

MDR E. coli ASEC 8 = experiment: microbe, parasite or virus in culture; type: cell-based, Escherichia coli; details: Escherichia coli, microdilution, LB, 18 to 24 h, 37°C, three independent experiments, read-out: MIC
Protocol: as §1

MDR E. coli ASEC 3 [2] = experiment: microbe, parasite or virus in culture; type: cell-based, Escherichia coli; details: Escherichia coli, microdilution, LB, 18 to 24 h, 37°C, three independent experiments, read-out: MIC
Protocol: as §1

MDR E. coli ASEC 2 = experiment: microbe, parasite or virus in culture; type: cell-based, Escherichia coli; details: Escherichia coli, microdilution, LB, 18 to 24 h, 37°C, three independent experiments, read-out: MIC
Protocol: as §1

MDR E. coli ASEC 15 = experiment: microbe, parasite or virus in culture; type: cell-based, Escherichia coli; details: Escherichia coli, microdilution, LB, 18 to 24 h, 37°C, three independent experiments, read-out: MIC
Protocol: as §1

MDR E. coli ASEC 12 [3] = experiment: microbe, parasite or virus in culture; type: cell-based, Escherichia coli; details: Escherichia coli, microdilution, LB, 18 to 24 h, 37°C, three independent experiments, read-out: MIC
Protocol: as §1

MDR E. coli ASEC 6 = experiment: microbe, parasite or virus in culture; type: cell-based, Escherichia coli; details: Escherichia coli, microdilution, LB, 18 to 24 h, 37°C, three independent experiments, read-out: MIC
Protocol: as §1

MDR E. coli ASEC 1 = experiment: microbe, parasite or virus in culture; type: cell-based, Escherichia coli; details: Escherichia coli, microdilution, LB, 18 to 24 h, 37°C, three independent experiments, read-out: MIC
Protocol: as §1

MDR E. coli ASEC 19 [4] = experiment: microbe, parasite or virus in culture; type: cell-based, Escherichia coli; details: Escherichia coli, microdilution, LB, 18 to 24 h, 37°C, three independent experiments, read-out: MIC
Protocol: as §1

MDR E. coli ASEC 18 = experiment: microbe, parasite or virus in culture; type: cell-based, Escherichia coli; details: Escherichia coli, microdilution, LB, 18 to 24 h, 37°C, three independent experiments, read-out: MIC
Protocol: as §1

E. coli ATCC 25922 = experiment: microbe, parasite or virus in culture; type: cell-based, Escherichia coli; details: Escherichia coli, ATCC25922, microdilution, LB, 2 × 10^5 CFU mL^−1, 18 to 24 h, 37°C, three independent experiments, read-out: MIC
Protocol: as §1

MDR E. coli ASEC 7 = experiment: microbe, parasite or virus in culture; type: cell-based, Escherichia coli; details: Escherichia coli, microdilution, LB, 18 to 24 h, 37°C, three independent experiments, read-out: MIC
Protocol: as §1

MDR E. coli ASEC 4 [5] = experiment: microbe, parasite or virus in culture; type: cell-based, Escherichia coli; details: Escherichia coli, microdilution, LB, 18 to 24 h, 37°C, three independent experiments, read-out: MIC
Protocol: as §1

MDR E. coli ASEC 11 [6] = experiment: microbe, parasite or virus in culture; type: cell-based, Escherichia coli; details: Escherichia coli, microdilution, LB, 18 to 24 h, 37°C, three independent experiments, read-out: MIC
Protocol: as §1

MDR E. coli ASEC 10 = experiment: microbe, parasite or virus in culture; type: cell-based, Escherichia coli; details: Escherichia coli, microdilution, LB, 18 to 24 h, 37°C, three independent experiments, read-out: MIC
Protocol: as §1

MDR E. coli ASEC 9 = experiment: microbe, parasite or virus in culture; type: cell-based, Escherichia coli; details: Escherichia coli, microdilution, LB, 18 to 24 h, 37°C, three independent experiments, read-out: MIC
Protocol: as §1

MDR E. coli ASEC 13 = experiment: microbe, parasite or virus in culture; type: cell-based, Escherichia coli; details: Escherichia coli, microdilution, LB, 18 to 24 h, 37°C, three independent experiments, read-out: MIC
Protocol: as §1

MDR E. coli ASEC 14 [7] = experiment: microbe, parasite or virus in culture; type: cell-based, Escherichia coli; details: Escherichia coli, microdilution, LB, 18 to 24 h, 37°C, three independent experiments, read-out: MIC
Protocol: as §1

MDR E. coli ASEC 5 = experiment: microbe, parasite or virus in culture; type: cell-based, Escherichia coli; details: Escherichia coli, microdilution, LB, 18 to 24 h, 37°C, three independent experiments, read-out: MIC
Protocol: as §1

MDR E. coli ASEC 12 [8] = system: MDR E. coli ASEC 12; parameters: method as in Asan hospital; key to susceptibility category: S: susceptible; R: resistant; I: intermediate; details: ref Asan hospital, cited from earlier work; for MIC: ASEC 12 (AmpC), resistance information of clinical isolate; for susceptibility category: ASEC 12
MDR E. coli ASEC 14 [9] = system: MDR E. coli ASEC 14; parameters: method as in Asan hospital; key to susceptibility category: S: susceptible; R: resistant; I: intermediate; details: ref Asan hospital, cited from earlier work; for MIC: ASEC 14 (AmpC), resistance information of clinical isolate; for susceptibility category: ASEC 14
MDR E. coli ASEC 3 [10] = system: MDR E. coli ASEC 3; parameters: method as in Asan hospital; key to susceptibility category: S: susceptible; R: resistant; I: intermediate; details: ref Asan hospital, cited from earlier work; for MIC: ASEC 3 (NDM-5), resistance information of clinical isolate; for susceptibility category: ASEC 3
MDR E. coli ASEC 11 [11] = system: MDR E. coli ASEC 11; parameters: method as in Asan hospital; key to susceptibility category: S: susceptible; R: resistant; I: intermediate; details: ref Asan hospital, cited from earlier work; for MIC: ASEC 11 (ESBL), resistance information of clinical isolate; for susceptibility category: ASEC 11
MDR E. coli ASEC 4 [12] = system: MDR E. coli ASEC 4; parameters: method as in Asan hospital; key to susceptibility category: S: susceptible; R: resistant; I: intermediate; details: ref Asan hospital, cited from earlier work; for MIC: ASEC 4 (ESBL), resistance information of clinical isolate; for susceptibility category: ASEC 4
MDR E. coli ASEC 19 [13] = system: MDR E. coli ASEC 19; parameters: method as in Asan hospital; key to susceptibility category: S: susceptible; R: resistant; I: intermediate; details: ref Asan hospital, cited from earlier work; for MIC: ASEC 19 (AmpC), resistance information of clinical isolate; for susceptibility category: ASEC 19
MDR E. coli ASEC 17 [14] = system: MDR E. coli ASEC 17; parameters: method as in Asan hospital; key to susceptibility category: S: susceptible; R: resistant; I: intermediate; details: ref Asan hospital, cited from earlier work; for MIC: ASEC 17 (AmpC), resistance information of clinical isolate; for susceptibility category: ASEC 17

SMILES	MIC (MDR E. coli ASEC 17 [1]) [µM]	MIC (MDR E. coli ASEC 16) [µM]	MIC (MDR E. coli ASEC 8) [µM]	MIC (MDR E. coli ASEC 3 [2]) [µM]	MIC (MDR E. coli ASEC 2) [µM]	MIC (MDR E. coli ASEC 15) [µM]	MIC (MDR E. coli ASEC 12 [3]) [µM]	MIC (MDR E. coli ASEC 6) [µM]	MIC (MDR E. coli ASEC 1) [µM]	MIC (MDR E. coli ASEC 19 [4]) [µM]	MIC (MDR E. coli ASEC 18) [µM]	MIC (E. coli ATCC 25922) [µM]	MIC (MDR E. coli ASEC 7) [µM]	MIC (MDR E. coli ASEC 4 [5]) [µM]	MIC (MDR E. coli ASEC 11 [6]) [µM]	MIC (MDR E. coli ASEC 10) [µM]	MIC (MDR E. coli ASEC 9) [µM]	MIC (MDR E. coli ASEC 13) [µM]	MIC (MDR E. coli ASEC 14 [7]) [µM]	MIC (MDR E. coli ASEC 5) [µM]	further results
CO/N=C(\C(=O)N[C@@H]1C(=O)N2C(C(=O)O)=C(COC(C)=O)CS[C@H]12)c1csc(N)n1 [Cefotaxime]	> 32	> 32	> 32	> 32	> 32	> 32	> 32	> 32	> 32	> 32	> 32	< 1	> 32	> 32	> 32	> 32	> 32	> 32	> 32	> 32	MIC (MDR E. coli ASEC 12 [8]): > 32 µg/mL; susceptibility category (MDR E. coli ASEC 12 [8]): R; MIC (MDR E. coli ASEC 14 [9]): > 32 µg/mL; susceptibility category (MDR E. coli ASEC 14 [9]): R; MIC (MDR E. coli ASEC 3 [10]): > 32 µg/mL; susceptibility category (MDR E. coli ASEC 3 [10]): R; MIC (MDR E. coli ASEC 11 [11]): > 32 µg/mL; susceptibility category (MDR E. coli ASEC 11 [11]): R; MIC (MDR E. coli ASEC 4 [12]): > 32 µg/mL; susceptibility category (MDR E. coli ASEC 4 [12]): R; MIC (MDR E. coli ASEC 19 [13]): > 32 µg/mL; susceptibility category (MDR E. coli ASEC 19 [13]): R; MIC (MDR E. coli ASEC 17 [14]): > 32 µg/mL; susceptibility category (MDR E. coli ASEC 17 [14]): R
CC(C)(O/N=C(\C(=O)N[C@@H]1C(=O)N2C(C(=O)[O-])=C(C[n+]3ccccc3)CS[C@H]12)c1csc(N)n1)C(=O)O [Ceftazidime]	> 32	> 32	> 32	> 32	> 32	> 32	> 32	> 32	> 32	> 32	> 32	< 1	16 (≈ 8.75 µg/mL)	> 32	> 32	32 (≈ 17.5 µg/mL)	> 32	> 32	> 32	> 32	MIC (MDR E. coli ASEC 12 [8]): 16 µg/mL (≈ 29.3 µM); susceptibility category (MDR E. coli ASEC 12 [8]): R; MIC (MDR E. coli ASEC 14 [9]): > 16 µg/mL; susceptibility category (MDR E. coli ASEC 14 [9]): R; MIC (MDR E. coli ASEC 3 [10]): > 16 µg/mL; susceptibility category (MDR E. coli ASEC 3 [10]): R; MIC (MDR E. coli ASEC 11 [11]): > 16 µg/mL; susceptibility category (MDR E. coli ASEC 11 [11]): R; MIC (MDR E. coli ASEC 4 [12]): > 16 µg/mL; susceptibility category (MDR E. coli ASEC 4 [12]): R; MIC (MDR E. coli ASEC 19 [13]): > 16 µg/mL; susceptibility category (MDR E. coli ASEC 19 [13]): R; MIC (MDR E. coli ASEC 17 [14]): > 16 µg/mL; susceptibility category (MDR E. coli ASEC 17 [14]): R
